Values quoted from earlier work, collected in patent publication US20040219231A1, “Production of concentrated biocidal solutions” (priority 2000, published 2004).

Experiments:
[1] = not given; remark: listed apart in the source

Row | SMILES | solubility in water | Vapor Pressure (25° C.) [1]
1 | CC1(C)C(=O)N(Cl)C(=O)N1Br [BCDMH, 1,3-bromochloro-5,5-dimethylhydantoin] | around 0.15% | –
2 | BrBr [Bromine (Br2), Bromine] | – | 214 mm
3 | ClBr [Bromine Chloride (BrCl), Bromine Chloride] | – | 1800 mm
